Laboratory results: ChEMBL document CHEMBL6103638, “Dual Modulator of FXR and HSD17B13: Revitalizing FXR Therapies in MASH” (J Med Chem, 2025)

Target: T1, Bile acid receptor (Homo sapiens, UniProt Q96RI1)
T1 sequence (Q96RI1 whole entry): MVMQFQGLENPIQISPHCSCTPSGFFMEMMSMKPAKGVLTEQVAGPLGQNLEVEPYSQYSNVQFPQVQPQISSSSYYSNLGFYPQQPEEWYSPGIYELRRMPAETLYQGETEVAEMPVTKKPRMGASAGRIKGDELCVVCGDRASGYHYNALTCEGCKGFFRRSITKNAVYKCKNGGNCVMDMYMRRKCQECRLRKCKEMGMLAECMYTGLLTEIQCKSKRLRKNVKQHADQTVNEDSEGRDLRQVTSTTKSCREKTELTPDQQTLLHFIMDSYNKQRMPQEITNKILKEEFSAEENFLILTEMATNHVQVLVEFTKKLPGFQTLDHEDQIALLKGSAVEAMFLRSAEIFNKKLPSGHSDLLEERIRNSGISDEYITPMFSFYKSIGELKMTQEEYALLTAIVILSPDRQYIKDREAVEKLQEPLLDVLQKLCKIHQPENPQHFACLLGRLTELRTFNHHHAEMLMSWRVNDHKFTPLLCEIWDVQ
Test: Agonist activity at FXR (unknown origin)

CC(C)(C)c1ccc(-n2cnc3c(NC(=O)Cc4ccc(C(=O)O)cc4)cccc32)cc1
EC50: 0.78 µM
